One block for each compound: values may come before it.
What was measured:
[1] = target: RAF proto-oncogene serine/threonine-protein kinase (Homo sapiens) (UniProt P04049); settings: at 1 µM
[2] = target: Receptor-type tyrosine-protein kinase FLT3 (Homo sapiens) (UniProt P36888); assay: Selectivity interaction (Ambit kinase binding assay panel) EUB0000608a FLT3; settings: at 10 µM
[3] = target: T1, Cyclin-G-associated kinase (Homo sapiens) (UniProt O14976); assay: Selectivity interaction (Ambit kinase binding assay panel) EUB0000608a GAK; settings: at 10 µM
T1 sequence (whole entry): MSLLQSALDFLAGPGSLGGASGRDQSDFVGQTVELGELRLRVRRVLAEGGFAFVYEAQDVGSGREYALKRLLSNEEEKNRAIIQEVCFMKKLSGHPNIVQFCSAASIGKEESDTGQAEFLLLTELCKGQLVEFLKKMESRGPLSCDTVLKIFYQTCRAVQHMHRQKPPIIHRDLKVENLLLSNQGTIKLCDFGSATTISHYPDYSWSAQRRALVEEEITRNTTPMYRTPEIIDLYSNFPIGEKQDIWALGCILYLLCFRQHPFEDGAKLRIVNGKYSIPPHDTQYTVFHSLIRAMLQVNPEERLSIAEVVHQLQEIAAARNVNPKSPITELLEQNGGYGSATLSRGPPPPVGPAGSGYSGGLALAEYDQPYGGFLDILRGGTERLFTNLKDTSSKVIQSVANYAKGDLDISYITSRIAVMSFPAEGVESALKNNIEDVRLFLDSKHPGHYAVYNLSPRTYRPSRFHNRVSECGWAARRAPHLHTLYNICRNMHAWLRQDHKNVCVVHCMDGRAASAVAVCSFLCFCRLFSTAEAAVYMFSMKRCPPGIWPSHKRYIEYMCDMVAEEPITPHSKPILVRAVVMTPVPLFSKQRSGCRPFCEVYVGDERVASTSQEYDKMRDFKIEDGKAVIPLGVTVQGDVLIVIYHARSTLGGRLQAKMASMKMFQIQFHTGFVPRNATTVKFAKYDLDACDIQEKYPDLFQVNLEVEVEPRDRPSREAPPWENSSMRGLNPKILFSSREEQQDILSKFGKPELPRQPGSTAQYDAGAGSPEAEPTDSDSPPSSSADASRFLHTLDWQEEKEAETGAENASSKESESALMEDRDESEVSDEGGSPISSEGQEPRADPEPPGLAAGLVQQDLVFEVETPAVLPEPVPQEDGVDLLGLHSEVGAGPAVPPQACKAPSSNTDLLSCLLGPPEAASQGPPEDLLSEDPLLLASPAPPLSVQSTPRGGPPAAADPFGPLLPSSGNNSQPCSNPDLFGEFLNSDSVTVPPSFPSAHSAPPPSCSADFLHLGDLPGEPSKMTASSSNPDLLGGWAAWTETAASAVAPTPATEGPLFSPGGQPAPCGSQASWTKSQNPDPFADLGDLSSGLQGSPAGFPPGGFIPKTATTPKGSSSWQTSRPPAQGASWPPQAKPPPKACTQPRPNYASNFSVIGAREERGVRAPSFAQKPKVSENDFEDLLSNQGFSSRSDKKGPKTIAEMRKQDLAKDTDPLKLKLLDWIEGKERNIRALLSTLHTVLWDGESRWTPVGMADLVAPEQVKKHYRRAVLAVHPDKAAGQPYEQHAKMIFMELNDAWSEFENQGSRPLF

[4] = target: Serine/threonine-protein kinase PLK3 (Homo sapiens, UniProt Q9H4B4); assay: Selectivity interaction (Ambit kinase binding assay panel) EUB0000608a PLK3; settings: at 10 µM
[5] = target: T2, Serine/threonine-protein kinase PLK4 (Homo sapiens) (UniProt O00444); assay: Selectivity interaction (Ambit kinase binding assay panel) EUB0000608a PLK4; settings: at 10 µM
T2 sequence (whole entry): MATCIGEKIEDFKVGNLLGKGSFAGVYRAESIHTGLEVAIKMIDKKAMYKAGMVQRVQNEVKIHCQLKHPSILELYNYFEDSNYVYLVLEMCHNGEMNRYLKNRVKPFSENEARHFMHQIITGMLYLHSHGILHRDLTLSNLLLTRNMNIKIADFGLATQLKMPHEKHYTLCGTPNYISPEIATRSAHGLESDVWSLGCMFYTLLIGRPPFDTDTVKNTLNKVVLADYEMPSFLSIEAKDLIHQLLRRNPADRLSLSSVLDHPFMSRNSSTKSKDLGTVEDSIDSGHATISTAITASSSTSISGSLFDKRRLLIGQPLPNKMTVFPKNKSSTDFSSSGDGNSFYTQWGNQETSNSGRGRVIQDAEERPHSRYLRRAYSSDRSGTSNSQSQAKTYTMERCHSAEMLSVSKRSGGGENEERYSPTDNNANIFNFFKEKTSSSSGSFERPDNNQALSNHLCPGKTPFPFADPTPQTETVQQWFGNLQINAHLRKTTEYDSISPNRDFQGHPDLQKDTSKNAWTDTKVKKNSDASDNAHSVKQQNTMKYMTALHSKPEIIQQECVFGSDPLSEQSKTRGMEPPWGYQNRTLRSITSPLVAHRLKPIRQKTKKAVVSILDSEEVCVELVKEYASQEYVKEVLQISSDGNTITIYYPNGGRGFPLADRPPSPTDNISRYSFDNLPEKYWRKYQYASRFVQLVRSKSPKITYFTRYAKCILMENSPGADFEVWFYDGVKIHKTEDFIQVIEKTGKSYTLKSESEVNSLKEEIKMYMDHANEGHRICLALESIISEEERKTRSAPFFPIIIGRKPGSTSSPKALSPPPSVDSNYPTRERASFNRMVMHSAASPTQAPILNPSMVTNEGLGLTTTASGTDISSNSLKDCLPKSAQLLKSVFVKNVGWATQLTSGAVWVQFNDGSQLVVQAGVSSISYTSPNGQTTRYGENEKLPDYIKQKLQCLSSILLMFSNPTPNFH

Focal adhesion kinase 1 = Focal adhesion kinase 1 (Homo sapiens, UniProt Q05397); assay: Selectivity interaction (Ambit kinase binding assay panel) EUB0000608a PTK2; settings: at 10 µM
[6] = target: T3, Dual specificity protein kinase TTK (Homo sapiens) (UniProt P33981); assay: Selectivity interaction (Ambit kinase binding assay panel) EUB0000608a TTK; settings: at 10 µM
T3 sequence (whole entry): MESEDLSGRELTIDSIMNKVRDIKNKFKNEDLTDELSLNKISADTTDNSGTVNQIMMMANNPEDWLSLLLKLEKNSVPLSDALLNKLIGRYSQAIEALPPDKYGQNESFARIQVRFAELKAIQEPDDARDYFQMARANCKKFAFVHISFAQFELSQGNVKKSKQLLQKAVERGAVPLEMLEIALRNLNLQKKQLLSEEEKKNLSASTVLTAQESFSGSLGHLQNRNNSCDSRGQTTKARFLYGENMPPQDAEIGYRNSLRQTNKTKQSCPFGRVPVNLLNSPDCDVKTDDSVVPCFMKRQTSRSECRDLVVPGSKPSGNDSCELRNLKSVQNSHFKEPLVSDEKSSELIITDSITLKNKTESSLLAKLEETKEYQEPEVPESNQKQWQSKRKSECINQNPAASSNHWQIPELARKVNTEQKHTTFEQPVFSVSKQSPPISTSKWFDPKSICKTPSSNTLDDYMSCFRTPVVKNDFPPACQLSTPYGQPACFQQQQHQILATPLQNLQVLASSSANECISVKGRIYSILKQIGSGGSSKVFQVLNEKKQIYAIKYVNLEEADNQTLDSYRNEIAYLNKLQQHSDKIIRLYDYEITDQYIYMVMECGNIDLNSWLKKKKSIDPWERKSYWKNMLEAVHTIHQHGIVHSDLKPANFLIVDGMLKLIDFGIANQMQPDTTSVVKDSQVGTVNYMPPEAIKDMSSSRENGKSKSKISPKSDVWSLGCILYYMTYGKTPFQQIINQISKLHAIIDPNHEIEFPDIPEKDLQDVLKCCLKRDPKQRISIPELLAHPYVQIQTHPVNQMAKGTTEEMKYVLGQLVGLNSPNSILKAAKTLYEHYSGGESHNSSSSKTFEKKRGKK

[7] = target: Tyrosine-protein kinase Blk (Homo sapiens) (UniProt P51451); assay: Selectivity interaction (SelectScreen kinase panel (Invitrogen)) EUB0000133b BLK; settings: at 1 µM
[8] = target: Calcium/calmodulin-dependent protein kinase type II subunit alpha (Homo sapiens, UniProt Q9UQM7); assay: Selectivity interaction (SelectScreen kinase panel (Invitrogen)) EUB0000133b CAMK2A; settings: at 1 µM
[9] = target: Ephrin type-A receptor 2 (Homo sapiens) (UniProt P29317); assay: Selectivity interaction (SelectScreen kinase panel (Invitrogen)) EUB0000133b EPHA2; settings: at 1 µM
Ephrin type-A receptor 4 = Ephrin type-A receptor 4 (Homo sapiens, UniProt P54764); assay: Selectivity interaction (SelectScreen kinase panel (Invitrogen)) EUB0000133b EPHA4; settings: at 1 µM
[10] = target: Fibroblast growth factor receptor 2 (Homo sapiens) (UniProt P21802); assay: Selectivity interaction (SelectScreen kinase panel (Invitrogen)) EUB0000133b FGFR2; settings: at 1 µM
[11] = target: Tyrosine-protein kinase Fgr (Homo sapiens) (UniProt P09769); assay: Selectivity interaction (SelectScreen kinase panel (Invitrogen)) EUB0000133b FGR; settings: at 1 µM
[12] = target: MAP kinase-activated protein kinase 3 (Homo sapiens) (UniProt Q16644); assay: Selectivity interaction (SelectScreen kinase panel (Invitrogen)) EUB0000133b MAPKAPK3; settings: at 1 µM
[13] = target: NT-3 growth factor receptor (Homo sapiens, UniProt Q16288); assay: Selectivity interaction (SelectScreen kinase panel (Invitrogen)) EUB0000133b NTRK3; settings: at 1 µM
[14] = target: Vascular endothelial growth factor receptor 1 (Homo sapiens) (UniProt P17948); settings: at 1 µM
[15] = target: Vascular endothelial growth factor receptor 3 (Homo sapiens, UniProt P35916); settings: at 1 µM
[16] = target: Vascular endothelial growth factor receptor 2 (Homo sapiens, UniProt P35968); settings: at 1 µM
[17] = target: Mitogen-activated protein kinase kinase kinase kinase 4 (Homo sapiens, UniProt O95819); settings: at 1 µM
Misshapen-like kinase 1 = Misshapen-like kinase 1 (Homo sapiens, UniProt Q8N4C8); settings: at 1 µM
[18] = test system: Platelet-derived growth factor receptor alpha (Homo sapiens), P16234 [V561D]; settings: at 1 µM
[19] = target: Platelet-derived growth factor receptor alpha (Homo sapiens, UniProt P16234); settings: at 1 µM
[20] = target: Receptor-interacting serine/threonine-protein kinase 2 (Homo sapiens, UniProt O43353); settings: at 1 µM
Chain of Receptor-interacting serine/threonine-protein kinase 2 (O43353 whole entry): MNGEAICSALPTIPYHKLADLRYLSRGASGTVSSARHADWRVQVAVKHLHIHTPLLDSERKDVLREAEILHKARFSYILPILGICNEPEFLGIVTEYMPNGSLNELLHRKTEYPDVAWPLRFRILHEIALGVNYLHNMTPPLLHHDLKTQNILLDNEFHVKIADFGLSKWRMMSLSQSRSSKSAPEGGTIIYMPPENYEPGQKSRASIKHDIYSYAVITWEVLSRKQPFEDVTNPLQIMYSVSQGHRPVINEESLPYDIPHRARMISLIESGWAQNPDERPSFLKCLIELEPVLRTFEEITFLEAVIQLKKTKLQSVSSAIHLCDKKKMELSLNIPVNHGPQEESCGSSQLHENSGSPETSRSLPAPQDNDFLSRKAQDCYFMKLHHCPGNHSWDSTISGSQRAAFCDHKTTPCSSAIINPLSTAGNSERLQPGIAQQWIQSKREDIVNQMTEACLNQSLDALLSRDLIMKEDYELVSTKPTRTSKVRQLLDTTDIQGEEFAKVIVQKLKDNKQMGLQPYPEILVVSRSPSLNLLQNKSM

Chain of Vascular endothelial growth factor receptor 1 (Homo sapiens) (P17948 whole entry): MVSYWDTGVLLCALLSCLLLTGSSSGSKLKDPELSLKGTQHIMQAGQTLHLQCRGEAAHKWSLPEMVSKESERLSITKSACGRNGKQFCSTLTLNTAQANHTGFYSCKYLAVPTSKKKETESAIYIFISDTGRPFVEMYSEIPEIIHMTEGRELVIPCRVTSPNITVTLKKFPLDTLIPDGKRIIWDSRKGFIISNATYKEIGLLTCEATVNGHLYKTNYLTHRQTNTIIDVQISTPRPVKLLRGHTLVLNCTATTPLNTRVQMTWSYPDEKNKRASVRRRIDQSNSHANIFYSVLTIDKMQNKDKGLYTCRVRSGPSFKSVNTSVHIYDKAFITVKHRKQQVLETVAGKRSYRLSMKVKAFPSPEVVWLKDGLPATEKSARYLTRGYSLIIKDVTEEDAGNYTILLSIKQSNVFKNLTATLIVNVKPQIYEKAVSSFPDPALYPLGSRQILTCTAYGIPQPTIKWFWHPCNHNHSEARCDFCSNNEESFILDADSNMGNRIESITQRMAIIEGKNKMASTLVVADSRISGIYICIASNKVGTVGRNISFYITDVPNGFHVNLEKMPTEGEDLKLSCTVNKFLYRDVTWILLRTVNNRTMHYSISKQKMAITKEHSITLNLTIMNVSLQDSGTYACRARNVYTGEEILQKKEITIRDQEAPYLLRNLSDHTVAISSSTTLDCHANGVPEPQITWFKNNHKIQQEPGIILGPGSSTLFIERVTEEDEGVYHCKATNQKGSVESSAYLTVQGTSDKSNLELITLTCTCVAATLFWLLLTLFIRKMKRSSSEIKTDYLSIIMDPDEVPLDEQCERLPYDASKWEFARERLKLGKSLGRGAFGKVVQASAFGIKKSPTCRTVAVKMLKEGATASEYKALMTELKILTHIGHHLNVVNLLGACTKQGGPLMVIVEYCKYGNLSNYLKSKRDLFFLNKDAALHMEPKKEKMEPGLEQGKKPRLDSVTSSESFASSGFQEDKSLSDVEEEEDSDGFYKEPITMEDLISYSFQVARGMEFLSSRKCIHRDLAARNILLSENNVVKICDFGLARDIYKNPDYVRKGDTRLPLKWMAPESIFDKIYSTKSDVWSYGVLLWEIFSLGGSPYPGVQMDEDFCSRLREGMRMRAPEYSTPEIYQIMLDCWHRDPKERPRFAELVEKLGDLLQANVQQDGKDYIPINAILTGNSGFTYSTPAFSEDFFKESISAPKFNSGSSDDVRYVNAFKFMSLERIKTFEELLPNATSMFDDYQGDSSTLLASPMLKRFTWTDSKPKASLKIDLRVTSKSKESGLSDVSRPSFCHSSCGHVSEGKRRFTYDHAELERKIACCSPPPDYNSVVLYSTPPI
Chain of Fibroblast growth factor receptor 2 (Homo sapiens) (P21802 22-821 limits assumed): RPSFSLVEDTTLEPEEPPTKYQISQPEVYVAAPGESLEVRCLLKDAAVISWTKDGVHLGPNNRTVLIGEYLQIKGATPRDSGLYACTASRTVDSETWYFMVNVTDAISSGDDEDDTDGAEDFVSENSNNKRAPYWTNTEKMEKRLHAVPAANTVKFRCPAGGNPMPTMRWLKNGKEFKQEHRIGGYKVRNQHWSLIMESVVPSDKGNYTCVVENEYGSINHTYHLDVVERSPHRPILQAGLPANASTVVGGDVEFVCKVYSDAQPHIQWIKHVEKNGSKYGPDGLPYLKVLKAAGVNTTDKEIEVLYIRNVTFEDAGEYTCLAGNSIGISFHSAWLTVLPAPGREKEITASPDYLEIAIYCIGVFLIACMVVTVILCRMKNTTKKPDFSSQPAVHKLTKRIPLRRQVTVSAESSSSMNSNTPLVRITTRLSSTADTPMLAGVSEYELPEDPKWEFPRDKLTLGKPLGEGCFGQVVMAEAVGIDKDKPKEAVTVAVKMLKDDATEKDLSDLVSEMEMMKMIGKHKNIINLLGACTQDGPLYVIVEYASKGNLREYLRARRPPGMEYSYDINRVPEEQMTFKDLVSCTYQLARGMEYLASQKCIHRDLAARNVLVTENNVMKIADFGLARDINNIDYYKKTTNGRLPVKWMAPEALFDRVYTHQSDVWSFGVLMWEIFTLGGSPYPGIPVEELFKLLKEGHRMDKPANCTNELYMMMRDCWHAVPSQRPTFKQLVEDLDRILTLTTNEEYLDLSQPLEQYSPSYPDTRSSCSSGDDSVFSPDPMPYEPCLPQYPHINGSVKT
Chain of Focal adhesion kinase 1 (Q05397 2-1052 limits assumed): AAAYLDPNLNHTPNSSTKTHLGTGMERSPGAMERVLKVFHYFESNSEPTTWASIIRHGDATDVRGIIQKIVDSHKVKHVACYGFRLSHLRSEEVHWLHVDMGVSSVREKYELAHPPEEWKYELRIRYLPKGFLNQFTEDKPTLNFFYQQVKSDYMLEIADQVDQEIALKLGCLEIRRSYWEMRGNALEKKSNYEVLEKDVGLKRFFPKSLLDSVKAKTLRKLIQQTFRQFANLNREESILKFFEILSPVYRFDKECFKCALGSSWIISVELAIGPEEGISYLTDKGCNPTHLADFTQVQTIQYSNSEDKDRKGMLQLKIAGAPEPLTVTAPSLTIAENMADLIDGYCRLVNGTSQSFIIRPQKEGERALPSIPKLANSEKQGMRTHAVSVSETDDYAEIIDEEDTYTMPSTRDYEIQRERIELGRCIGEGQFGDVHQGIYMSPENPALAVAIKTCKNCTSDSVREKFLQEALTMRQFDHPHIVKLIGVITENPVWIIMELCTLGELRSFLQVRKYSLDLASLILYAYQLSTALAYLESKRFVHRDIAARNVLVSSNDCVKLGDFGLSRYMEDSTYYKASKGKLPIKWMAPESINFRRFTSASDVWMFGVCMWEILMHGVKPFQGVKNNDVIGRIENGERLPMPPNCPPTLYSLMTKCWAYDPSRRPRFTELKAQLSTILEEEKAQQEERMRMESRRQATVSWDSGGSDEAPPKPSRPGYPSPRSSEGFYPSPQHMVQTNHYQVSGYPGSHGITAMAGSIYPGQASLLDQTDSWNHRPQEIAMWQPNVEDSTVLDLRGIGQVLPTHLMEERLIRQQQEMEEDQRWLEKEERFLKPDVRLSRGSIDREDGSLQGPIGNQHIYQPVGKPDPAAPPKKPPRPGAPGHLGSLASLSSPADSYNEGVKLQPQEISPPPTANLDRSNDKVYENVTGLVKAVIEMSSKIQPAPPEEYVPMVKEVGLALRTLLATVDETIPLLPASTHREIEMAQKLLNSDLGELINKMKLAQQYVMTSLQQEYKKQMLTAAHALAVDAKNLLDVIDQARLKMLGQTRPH
Chain of Ephrin type-A receptor 2 (Homo sapiens) (P29317 whole entry): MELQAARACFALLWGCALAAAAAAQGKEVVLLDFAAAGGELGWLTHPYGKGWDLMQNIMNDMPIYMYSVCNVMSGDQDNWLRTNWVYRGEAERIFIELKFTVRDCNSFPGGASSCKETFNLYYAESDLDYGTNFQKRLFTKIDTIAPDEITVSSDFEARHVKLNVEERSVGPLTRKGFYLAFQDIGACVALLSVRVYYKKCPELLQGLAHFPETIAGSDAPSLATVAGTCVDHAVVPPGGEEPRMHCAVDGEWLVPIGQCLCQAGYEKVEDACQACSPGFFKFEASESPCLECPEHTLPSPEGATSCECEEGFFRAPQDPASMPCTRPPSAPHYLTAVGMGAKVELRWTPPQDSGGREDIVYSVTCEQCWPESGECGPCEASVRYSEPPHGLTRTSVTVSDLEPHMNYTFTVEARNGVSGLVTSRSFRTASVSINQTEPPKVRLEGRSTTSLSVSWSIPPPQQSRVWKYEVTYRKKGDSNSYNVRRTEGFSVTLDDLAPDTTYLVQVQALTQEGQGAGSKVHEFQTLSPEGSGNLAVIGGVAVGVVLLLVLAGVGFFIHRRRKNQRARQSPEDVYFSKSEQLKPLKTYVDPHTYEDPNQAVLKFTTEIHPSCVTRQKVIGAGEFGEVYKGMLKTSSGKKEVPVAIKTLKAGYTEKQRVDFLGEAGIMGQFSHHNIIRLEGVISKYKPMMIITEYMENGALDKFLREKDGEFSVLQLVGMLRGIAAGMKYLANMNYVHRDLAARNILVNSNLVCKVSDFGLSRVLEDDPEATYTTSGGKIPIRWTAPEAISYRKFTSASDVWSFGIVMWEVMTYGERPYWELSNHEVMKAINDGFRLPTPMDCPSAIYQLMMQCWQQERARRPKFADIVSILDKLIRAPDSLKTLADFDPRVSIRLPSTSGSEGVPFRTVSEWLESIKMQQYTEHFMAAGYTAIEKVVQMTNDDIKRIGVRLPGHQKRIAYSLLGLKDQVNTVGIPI
Chain of MAP kinase-activated protein kinase 3 (Homo sapiens) (Q16644 whole entry, looked up): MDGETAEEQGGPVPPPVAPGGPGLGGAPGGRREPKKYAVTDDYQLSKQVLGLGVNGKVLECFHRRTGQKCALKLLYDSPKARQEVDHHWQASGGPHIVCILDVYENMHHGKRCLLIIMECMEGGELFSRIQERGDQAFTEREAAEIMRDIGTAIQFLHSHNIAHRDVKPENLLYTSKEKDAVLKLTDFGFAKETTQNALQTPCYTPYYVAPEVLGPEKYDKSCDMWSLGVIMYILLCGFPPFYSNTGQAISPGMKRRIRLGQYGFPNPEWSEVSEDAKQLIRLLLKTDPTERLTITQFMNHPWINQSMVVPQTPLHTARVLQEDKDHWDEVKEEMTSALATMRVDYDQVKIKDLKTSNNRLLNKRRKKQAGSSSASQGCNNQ

% of control [1]: 8%
Structure (SMILES): OCCn1cc(-c2ccc3c(c2)CCC3=NO)c(-c2ccncc2)n1

% of control [2]: 0%
% of control [3]: 2%
% of control [4]: 15%
% of control [5]: 27%
% of control (Focal adhesion kinase 1): 24%
% of control [6]: 3.2%
Structure (SMILES): CCOc1cc(N2CCC(O)CC2)ccc1Nc1ncc2c(n1)N(C1CCCC1)CCC(=O)N2C

% of inhibition [7]: 92%
% of inhibition [8]: 95%
% of inhibition [9]: 100%
% of inhibition (Ephrin type-A receptor 4): 94%
% of inhibition [10]: 90%
% of inhibition [11]: 97%
% of inhibition [12]: 91%
% of inhibition [13]: 91%
Structure (SMILES): COc1cc(Nc2ncc3c(n2)-c2ccc(Cl)cc2C(c2c(F)cccc2OC)=NC3)ccc1C(=O)O

% of residual activity [14]: 38%
% of residual activity [15]: 28%
% of residual activity [16]: 11%
% of residual activity [17]: 41%
% of residual activity (Misshapen-like kinase 1): 21%
% of residual activity [18]: 43%
% of residual activity [19]: 47%
% of residual activity [20]: 7%
Structure (SMILES): Cc1cccc(-c2[nH]c(CNc3ccccc3F)nc2-c2ccc3ncnn3c2)n1

Source: ChEMBL document CHEMBL5465560, “Selectivity Literature for EUbOPEN Chemogenomic Library” (2024)
